The values that follow come from US7754747B2, “Oxazolo-naphthyl acids” (Wyeth LLC, priority 2004, dated 2010).

The term inhibition denotes the relative decrease from the control value, in per cent. A word on the melting point: it is the temperature of the solid-liquid transition. The IC50 is the point on the concentration scale where inhibition reaches its midpoint.

The target in series [1] is T1, recombinant human plasminogen activator inhibitor-1 (PAI-1) (Homo sapiens, UniProt P05121).
T1 construct: purchased Molecular Innovations, Royal Oak, Mich
Put plainly: Primary Screen for the PAI-1 Inhibition (residual tPA activity, Spectrozyme-tPA chromogenic substrate). The format is biochemical. Particulars: pH 6.6 buffer; for inhibition at 10 µM: 10 μM test compound; for inhibition at 25 µM: 25 μM test compound. As for the experimental part:
Test compounds are dissolved in DMSO at a final concentration of 10 mM, then diluted 100×in physiologic buffer. The inhibitory assay is initiated by the addition of the test compound (1-100 μM final concentration, maximun DMSO concentration of 0.2%) in a pH 6.6 buffer containing 140 Mn recombinant human plasminogen activator inhibitor-1 (PAI-1; Molecular Innovations, Royal Oak, Mich.). Following a 1 hour incubation at room temperature, 70 Mn of recombinant human tissue plasminogen activator (tPA) is added, and the combination of the test compound, PAI-1 and tPA is incubated for an additional 30 minutes. Following the second incubation, Spectrozyme-tPA (American Diagnostica, Greenwich, Conn.), a chromogenic substrate for tPA, is added and absorbance read at 405 nm at 0 and 60 minutes. Relative PAI-1 inhibition is equal to the residual tPA activity in the presence of the test compound and PAI-1. Control treatments include the complete inhibition of tPA by PAI-1 at the molar ratio employed (2:1), and the absence of any effect of the test compound on tPA alone.

The target of the next series is human PAI-1 (Homo sapiens, UniProt P05121). As to the kind of experiment: Assay for determining IC50 of inhibition of PAI-1 (Antibody Assay, active PAI-1 bound to tPA-coated plate). The series is classed as binding. Particulars: pH 7.5 buffer, human PAI-1 50 ng/ml. As for the experimental part: This assay is based upon the non-SDS dissociable interaction between tPA and active PAI-1. Assay plates are initially coated with human tPA (10 μg/ml). Test compounds of the present invention are dissolved in DMSO at 10 mM, then diluted with physiologic buffer (pH 7.5) to a final concentration of 1-50 μM. Test compounds are incubated with human PAI-1 (50 ng/ml) for 15 minutes at room temperature. The tPA-coated plate is washed with a solution of 0.05% Tween 20 and 0.1% BSA, then the plate is blocked with a solution of 3% BSA. An aliquot of the oxazolo-naphthyl acid/PAI-1 solution is then added to the tPA-coated plate, incubated at room temperature for 1 hour, and washed. Active PAI-1 bound to the plate is assessed by adding an aliquot of a 1:1000 dilution of the 33B8 monoclonal antibody against human PAI-1, and incubating the plate at room temperature for 1 hour (Molecular Innovations, Royal Oak, Mich.). The plate is again washed, and a solution of goat anti-mouse IgG-alkaline phosphatase conjugate is added at a 1:50,000 dilution in goat serum. The plate is incubated 30 minutes at room temperature, washed, and a solution of alkaline phosphatase substrate is added. The plate is incubated 45 minutes at room temperature, and color development is determined at OD405nm. The quantitation of active PAI-1 bound to tPA at varying concentrations of the test compound is used to determine the IC50. Results are analyzed using a logarithmic best-fit equation. The assay sensitivity is 5 ng/ml of human PAI-1 as determined from a standard curve ranging from 0-100 ng/ml.

Molecules are shown by their SMILES.

T1 sequence (P05121 24-402): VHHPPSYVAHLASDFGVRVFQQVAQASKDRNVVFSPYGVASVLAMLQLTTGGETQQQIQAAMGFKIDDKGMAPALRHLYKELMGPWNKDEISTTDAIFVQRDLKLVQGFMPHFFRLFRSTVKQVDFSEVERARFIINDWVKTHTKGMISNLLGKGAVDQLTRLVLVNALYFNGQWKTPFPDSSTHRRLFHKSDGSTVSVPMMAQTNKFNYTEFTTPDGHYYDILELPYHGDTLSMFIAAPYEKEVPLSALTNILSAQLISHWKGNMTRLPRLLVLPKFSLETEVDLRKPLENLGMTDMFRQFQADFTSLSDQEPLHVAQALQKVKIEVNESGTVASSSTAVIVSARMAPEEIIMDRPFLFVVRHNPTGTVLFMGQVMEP
Sequence of human PAI-1 (P05121 24-402): as above

Compound `c1ccc(-c2ncc(-c3ccc4cc(OCc5nnn[nH]5)ccc4c3)o2)cc1` [Example 1, 5-({[6-(2-phenyl-1,3-oxazol-5-yl)-2-naphthyl]oxy}methyl)-1H-tetraazole] yielded a melting point of 239 to 241 °C. Besides, in series [1], the inhibition at 10 µM came to 17% and the inhibition at 25 µM stood at 65%. Further, the half-maximal inhibitory concentration (IC50) against human PAI-1 was found to be 68.4 µM.

For the compound `CCCCc1oc2ccccc2c1-c1ncc(-c2ccc3cc(OCc4nnn[nH]4)ccc3c2)o1` [Example 2, 5-[({6-[2-(2-butyl-1-benzofuran-3-yl)-1,3-oxazol-5-yl]-2-naphthyl}oxy)methyl]-1H-tetraazole], the melting point was in the range of 238 to 240 °C. For the same compound, in series [1], the inhibition at 10 µM stood at 12% and the inhibition at 25 µM was 52%. Further, at human PAI-1, the IC50 turned out to be 19.4 µM.

`CCCCc1oc2ccccc2c1-c1ncc(-c2ccc3cc(OC(Cc4ccccc4)C(=O)O)ccc3c2)o1` (centres unmarked) [Example 3, 2-({6-[2-(2-butyl-1-benzofuran-3-yl)-1,3-oxazol-5-yl]-2-naphthyl}oxy)-3-phenylpropanoic acid]: the melting point was in the range of 174 to 177 °C. In series [1], the inhibition at 10 µM was found to be 32% and the inhibition at 25 µM is 66%. At human PAI-1, this compound displayed an IC50 of 26.6 µM.

Compound `CCCCc1oc2ccccc2c1-c1ncc(-c2ccc3cc(OCC(=O)O)ccc3c2)o1` [Example 4, ({6-[2-(2-butyl-1-benzofuran-3-yl)-1,3-oxazol-5-yl]-2-naphthyl}oxy)acetic acid] registered a melting point of 214 to 216 °C. Also, in series [1], the inhibition at 10 µM was found to be 23% and the inhibition at 25 µM turned out to be 46%. This compound also had an IC50 against human PAI-1 of 22.7 µM.

Compound `O=C(O)C(Cc1ccccc1)Oc1ccc2cc(-c3cnc(-c4cn(Cc5ccccc5)c5ccccc45)o3)ccc2c1` (centres unmarked) [Example 5, 2-({6-[2-(1-benzyl-1H-indol-3-yl)-1,3-oxazol-5-yl]-2-naphthyl}oxy)-3-phenylpropanoic acid] came in with a melting point of 125 to 127 °C. Also, in series [1], the inhibition at 10 µM was 1% and the inhibition at 25 µM turned out to be 34%. On human PAI-1, the half-maximal inhibitory concentration (IC50) was determined as 47.4 µM.

`O=C(O)COc1ccc2cc(-c3cnc(-c4cn(Cc5ccccc5)c5ccccc45)o3)ccc2c1` [Example 6, ({6-[2-(1-benzyl-1H-indol-3-yl)-1,3-oxazol-5-yl]-2-naphthyl}oxy)acetic acid]: the melting point fell in the range of 238 to 242 °C. Besides, in series [1], the inhibition at 10 µM came out at 4% and the inhibition at 25 µM was determined as 28%.

With `c1ccc(Cn2cc(-c3ncc(-c4ccc5cc(OCc6nnn[nH]6)ccc5c4)o3)c3ccccc32)cc1` [Example 7, 1-benzyl-3-{5-[6-(1H-tetrazol-5-ylmethoxy)-2-naphthyl]-1,3-oxazol-2-yl}-1H-indole], the melting point fell in the range of 244 to 246 °C. In series [1], the inhibition at 10 µM stood at 19% and the inhibition at 25 µM stood at 61%.

`Cn1cc(-c2ncc(-c3ccc4cc(OC(Cc5ccccc5)C(=O)O)ccc4c3)o2)c2ccccc21` (centres unmarked) [Example 8, 2-({6-[2-(1-methyl-1H-indol-3-yl)-1,3-oxazol-5-yl]-2-naphthyl}oxy)-3-phenylpropanoic acid] showed a melting point of 149 to 151 °C. For the same compound, in series [1], the inhibition at 10 µM came out at 2% and the inhibition at 25 µM came to 75%.

In the case of `Cn1cc(-c2ncc(-c3ccc4cc(OCC(=O)O)ccc4c3)o2)c2ccccc21` [Example 9, ({6-[2-(1-Methyl-1H-indol-3-yl)-1,3-oxazol-5-yl]-2-naphthyl}oxy)acetic acid], the melting point lay in the range of 269 to 272 °C. In addition, in series [1], the inhibition at 10 µM turned out to be 3% and the inhibition at 25 µM was found to be 24%.

`Cn1cc(-c2ncc(-c3ccc4cc(OCc5nnn[nH]5)ccc4c3)o2)c2ccccc21` [Example 10, 1-methyl-3-{5-[6-(1H-tetrazol-5-ylmethoxy)-2-naphthyl]-1,3-oxazol-2-yl}-1H-indole] came in with a melting point of 254 to 256 °C. In series [1], the inhibition at 10 µM is 16% and the inhibition at 25 µM came out at 35%.

`O=C(O)C(Cc1ccccc1)Oc1ccc2cc(-c3cnc(Cc4ccccc4)o3)ccc2c1` (centres unmarked) [Example 11, 2-{[6-(2-benzyl-1,3-oxazol-5-yl)-2-naphthyl]oxy}-3-phenylpropanoic acid] yielded a melting point of 78 to 82 °C. Further, in series [1], the inhibition at 10 µM came to 18% and the inhibition at 25 µM amounted to 31%.

`O=C(O)COc1ccc2cc(-c3cnc(Cc4ccccc4)o3)ccc2c1` [Example 12, {[6-(2-benzyl-1,3-oxazol-5-yl)-2-naphthyl]oxy}acetic acid]: the melting point lay in the range of 236 to 238 °C. In series [1], the inhibition at 10 µM was found to be 0% and the inhibition at 25 µM was 26%.

Compound `c1ccc(Cc2ncc(-c3ccc4cc(OCc5nnn[nH]5)ccc4c3)o2)cc1` [Example 13, 5-({[6-(2-benzyl-1,3-oxazol-5-yl)-2-naphthyl]oxy}methyl)-1H-tetraazole] came in with a melting point of 227 to 228 °C. In series [1], the inhibition at 10 µM is 11% and the inhibition at 25 µM was 23%.

Turning to `O=C(O)COc1ccc2cc(-c3cnc(Cc4ccc5ccccc5c4)o3)ccc2c1` [Example 14, ({6-[2-(2-naphthylmethyl)-1,3-oxazol-5-yl]-2-naphthyl}oxy)acetic acid], the melting point was 258 to 260 °C. In series [1], the inhibition at 10 µM was found to be 12% and the inhibition at 25 µM amounted to 17%.

Compound `c1ccc2cc(Cc3ncc(-c4ccc5cc(OCc6nnn[nH]6)ccc5c4)o3)ccc2c1` [Example 15, 5-[({6-[2-(2-naphthylmethyl)-1,3-oxazol-5-yl]-2-naphthyl}oxy)methyl]-1H-tetrazole] showed a melting point of 179 to 182 °C. Also, in series [1], the inhibition at 10 µM worked out at 22% and the inhibition at 25 µM was 48%.

As to `CCCCc1oc2ccccc2c1-c1ncc(-c2ccc3c(Br)c(OCc4nnn[nH]4)ccc3c2)o1` [Example 16, 5-[({1-bromo-6-[2-(2-butyl-1-benzofuran-3-yl)-1,3-oxazol-5-yl]-2-naphthyl}oxy)methyl]-1H-tetrazole], the melting point lay in the range of 235 to 237 °C. Further, in series [1], the inhibition at 10 µM came to 11% and the inhibition at 25 µM was 16%.

In the case of `CCCCc1oc2ccccc2c1-c1ncc(-c2ccc3cc(OCc4ccc(C(=O)O)cc4)ccc3c2)o1` [Example 17, 4-[({6-[2-(2-butyl-1-benzofuran-3-yl)-1,3-oxazol-5-yl]-2-naphthyl}oxy)methyl]benzoic acid], the melting point lay in the range of 251 to 254 °C. Moreover, in series [1], the inhibition at 10 µM came out at 14% and the inhibition at 25 µM worked out at 20%.

Consider `CCCCc1oc2ccccc2c1-c1ncc(-c2ccc3cc(OCc4ccc(C(=O)O)cc4C(=O)O)ccc3c2)o1` [Example 18, 4-[({6-[2-(2-butyl-1-benzofuran-3-yl)-1,3-oxazol-5-yl]-2-naphthyl}oxy)methyl]isophthalic acid], for which the melting point fell in the range of 285 to 287 °C. Besides, in series [1], the inhibition at 10 µM was 33% and the inhibition at 25 µM came out at 62%.

With `CCCCc1oc2ccccc2c1-c1ncc(-c2ccc3c(Br)c(OCc4ccc(C(=O)O)cc4)ccc3c2)o1` [Example 19, 4-[({1-bromo-6-[2-(2-butyl-1-benzofuran-3-yl)-1,3-oxazol-5-yl]-2-naphthyl}oxy)methyl]benzoic acid], the melting point lay within 281 to 283 °C. In addition, in series [1], the inhibition at 10 µM was determined as 12% and the inhibition at 25 µM stood at 23%.
